Results: patent US12502398B2, “Combination therapy for treating cancer” (AstraZeneca AB, priority 2019, dated 2025)

Key:
MC38-OVA model = assay: In vivo PD study of immune cell changes in MC38-OVA model (flow cytometry); design: species or system mouse; conditions: draining lymph node
Protocol: For monitoring immune cell changes tumors were harvested either four, ten or fourteen days post treatment. Tumors were excised and mechanically minced. Tumors were then incubated with tumor dissociation enzyme mix (Miltenyi Biotec) at 37° C. for 40 min in gentle MACS instrument (Miltenyi biotec). Single cell suspension were made and stained for a variety of immune cell markers to determine the immune cell changes post treatment using multicolor flow cytometry. Furthermore, the functional response of CD8+ cytotoxic T cells was evaluated by ex vivo restimulation with phorbol 12-myristate-13-acetate (PMA) and ionomycin prior to analysis.

[1] = tested on: Mouse Lewis lung (LL/2) carcinoma cells; assay: LL/2 syngeneic tumor model with TLR3 agonist, tumor volume; format: in vivo; conditions: Poly I:C 7.5 mg/kg ip 3x/week; for efficacy / monotherapy activity (in words): COMPOUND 12 30 mg/kg po BID
Protocol: Mouse Lewis lung (LL/2) carcinoma cells (1×10^6 cells/mouse), were subcutaneously implanted in the right flank of 6 to 8 weeks old C57BL/6 mice. On day 6 post implant, groups of mice were treated with vehicle (water), 30 mg/kg COMPOUND 12, 7.5 mg/kg TLR3 agonist (Poly I:C), or the combination. COMPOUND 12 was formulated in water and dosed orally twice per day. Poly I:C was formulated in water and dosed intraperitoneally 3×/week. Tumor length and width was measured by caliper and tumor volume was calculated using the formula (length×width^2)*π/6 then reported as tumor volume as calculated.

[2] = tested on: LL/2 murine lung carcinoma cells; assay: LL/2 syngeneic lung tumor model with radio therapy; format: in vivo, mouse; conditions: COMPOUND 12 30 mg/kg twice daily, radiation 5 gray on days 6 and 9 after implant
Protocol: Six-eight week old BL/6 mice (Charles River Labs) were implanted with 1e6 LL/2 murine lung carcinoma cells subcutaneously on the right flank. At 6 days post implant, animals were randomized by mean cage tumor volume into four groups (n=12/ group). Group 1 was anesthetized for mock irradiation on days 6 and 9, and dosed with vehicle (water) PO, BID starting on day 6. Group 2 was anesthetized and given 5 Gy of radiation targeted to the tumor on days 6 and 9. Group 3 was administered AZ8400 at 30 mg/kg PO bid starting on Day 6, and Group 4 was administered AZ8400 at 30 mg/kg starting on Day 6, and anesthetized and irradiated on days 6 and 9. Body weight and tumor volume were measured twice weekly until tumors were >1500 mm3, at which point mice were humanely sacrificed

[3] = tested on: Mouse CT.26 WT colorectal cancer cells; assay: CT.26 WT syngeneic tumor model, tumor volume; format: in vivo; conditions: COMPOUND 12 30 mg/kg orally twice per day, Anti-PDL1 10 mg/kg ip twice per week
Protocol: Mouse CT.26 WT colorectal cancer cells (5×10^5 cells/mouse), were subcutaneously implanted in the right flank of 6 to 8 weeks old female Balb/C mice. On day 6 post implant, groups of mice were treated with vehicle (water), 30 mg/kg COMPOUND 12, 10 mg/kg Anti-PDL1 (MEDI4736), or the combination. Additional groups were treated with 10 mg/kg Anti-NKG2A (monalizumab), in combination with either COMPOUND 12 or MEDI4736, or a triplicate of COMPOUND 12, monalizumab and MEDI4736. COMPOUND 12 was formulated in water and dosed orally twice per day. MEDI4736 was formulated in 1×PBS and dosed intraperitoneally twice per week for 2 weeks. Monalizumab was formulated in 1×PBS and dosed intravenously twice per week for 1.5 weeks (3 doses). Tumor length and width was measured by caliper and tumor volume was calculated using the formula (length×width^2)*π/6 then reported as tumor volume as calculated.

[4] = tested on: Mouse MC38 colorectal cancer cells expressing OVA antigen; assay: MC38-OVA syngeneic tumor model, tumor volume; format: in vivo; conditions: COMPOUND 12 30 mg/kg orally twice per day, Anti-PDL1 10 mg/kg ip twice per week
Protocol: Mouse MC38 colorectal cancer cells expressing OVA antigen (5×10^5 cells/mouse), were subcutaneously implanted in the right flank of 6 to 8 weeks old female C57BL/6 mice. On day 6 post transplant, groups of mice were treated with vehicle (water), 30 mg/kg COMPOUND 12, 10 mg/kg Anti-PDL1 (MEDI4736), or the combination. COMPOUND 12 was formulated in water and dosed orally twice per day. MEDI4736 was formulated in 1×PBS and dosed intraperitoneally twice per week for 2 weeks. Tumor length and width was measured by caliper and tumor volume was calculated using the formula (length×width^2)*π/6 then reported as tumor volume as calculated.

Compound | IFNg producing CD8+ T cells in the periphery (draining LN) (MC38-OVA model) | TNFa producing CD8+ T cells in the periphery (draining LN) (MC38-OVA model) | efficacy / monotherapy activity (in words) [1] | tumor growth inhibition [2] | efficacy (in words) [3] | efficacy (in words) [4] | TGI on day 16 ([1]; day 16) [%]
CC(C)[C@H](N)C(=O)N[C@H]1CN[C@@](CCCCB(O)O)(C(=O)O)C1 [COMPOUND 12, (2R,4R)-4-((S)-2-amino-3-methylbutanamido)-2-(4-boronobutyl)pyrrolidine-2-carboxylic acid] | increase | increase | modestly efficacious | about 30% | modestly efficacious | modestly efficacious | 
Anti-PDL1: MEDI4736, also known as durvalumab, an anti-PD-L1 antibody [reference compound] |  |  |  |  | modest efficacy | modest efficacy | 
polyinosinic:polycytidylic acid [Poly I:C] |  |  | moderate monotherapy activity |  |  |  | 76
